Measured values as given in patent publication US12576047B2, “Telomerase activating compounds for use in fertility and related applications” (Neuromagen Pharma Ltd, priority 2017, dated 2026).
“Also recorded” adds a separate entry of the source.

Experiments:
[1] = target: T1, telomerase (Rattus norvegicus, UniProt Q673L6); assay: TRAP assay of telomerase activity in granulosa cells; format: cell-based; conditions: 50 nM and 200 nM for 6 hours
T1 construct: Protein extracts prepared from these cells served for telomerase activity measurement; endogenous in cells; host or cells: immortalized rat granulosa cells expressing FSH receptor
Protocol: (§1) Immortalized rat granulosa cells expressing FSH receptor were treated with either pregnant mare serum gonadotropin (PMSG), or the indicated compounds, or both for 6 hours. Protein extracts prepared from these cells served for telomerase activity measurement using a telomere repeat amplification protocol (TRAP) assay.
(§2) Briefly, protein extract incubated with oligonucleotide, which serves as a template for telomerase (TS), for 45 minutes at 30° C. followed by PCR with reverse primer (ACX) and internal control. PCR products were separated on 4.5% agarose gel. RNA extracts were used for cDNA synthesis and quantitative real time PCR with specific primers to Telomerase reverse transcriptase (TERT), Steroidogenic acute regulatory protein (StAr) and β-actin as a reference gene. To measure progesterone levels secreted by the cells, granulosa cells were cultured with or without 1 IU/mL PMSG and DMSO, Compound 79 50 nM or compound 70 50 nM in the presence of 100 nM dexamethasone. After 24 hours progesterone levels cell-culture medium were determined by radioimmunoassay (RIA). For cell proliferation measurement, 1×10^5 cells were seeded in a 96 wells plate with 1 IU/mL PMSG and DMSO, Compound 79 50 nM or Compound 70 50 nM. After 24 hours cells viability was measured by XTT proliferation assay.

[2] = system: Telomerase reverse transcriptase (TERT); assay: TERT relative mRNA levels by qRT-PCR in granulosa cells; format: cell-based, rat; conditions: 50 nM and 200 nM for 6 hours
Protocol: as §1, §2

[3] = system: Steroidogenic acute regulatory protein (StAr); assay: StAr relative mRNA levels by qRT-PCR in granulosa cells; format: cell-based, rat; conditions: 50 nM for 6 hours
Protocol: as §1, §2

[4] = system: mouse ovary; assay: Hematoxylin-eosin histology of mouse ovary; format: in vivo
Excerpt: The ovaries were weighted; one was taken for protein extraction for measuring telomerase activity by TRAP assay, and the other one for the histological examination using hematoxylin-eosin staining of the ovary and its follicles.
The mice ovaries were removed and fixed with 4% paraformaldehyde overnight, dehydrated in increasing ethanol concentrations to xylene, and embedded in paraffin. A rotary microtome was used to produce 5 μm sections, which were mounted on Superfrost plus slides. The sections were dried and heated at 37° C. overnight and stored in dry place. Paraffin-embedded sections were deparaffinized in xylene and rehydrated in decreasing concentrations of ethanol. Then the sections stained with hematoxylin-eosin or subjected to immunochemical and Immunofluorescent assays [Liani-Leibson, K., I. Har-Vardi, and E. Priel, Inhibition of topoisomerase I by anti-cancer drug altered the endometrial cyclicity and receptivity. Curr Mol Med, 2014. 14(1): p. 141-50].

[5] = system: CREM; assay: CREM expression in X-ray irradiated testis; format: in vivo, mouse; conditions: X-ray 2.5 Gy then injection, 12 hrs
Protocol: (§3) Toward this end, ICR mice (3 months old) were injected with 6 mg/kg of Compound 79, Compound 68 or Compound 70, or mice were subjected to X-ray radiation (2.5 Gy) followed by immediately injection of the respective compounds. Control mice were untreated or vehicle treated with or without exposure to X-ray radiation. The testes were removed 12 hrs after treatments and subjected to protein extracts or total RNA preparations for the examination of telomerase activity by TRAP assay, telomerase expression by Western blot and real time PCR. Testes were also taken for immunohistochemical and immunofluorescence analysis with various spermatogenesis markers. Epididymis was also taken for sperm count.

[6] = system: γ-H2AX; assay: γ-H2AX immunofluorescence of testis; format: in vivo, mouse; conditions: 12 hrs
Protocol: as §3

[7] = system: ICR mice; assay: Sperm count from the epididymis, with or without X-ray radiation; format: in vivo, mouse
Protocol: as §3, with “The testes were removed 12 hrs after treatments and subjected to protein extracts or total RNA preparations for the examination of telomerase activity by TRAP assay, telomerase expression by Western blot and real time PCR.” left out

[8] = system: sperm; assay: Sperm head morphology after X-ray radiation; format: in vivo, mouse; conditions: X-ray 2.5 Gy, single S.C. injection 6 mg/kg, 12 hours
Protocol: Three-month old mice were irradiated with X-ray (2.5 Gy) and treated with a single S.C. injection of 6 mg/kg of compound 68 or 70. Mice were sacrificed 12 hours later and sperm were removed from the epididymis and stained with eosin. The number of morphologically defective sperm (head morphology) were quantified and presented as a percentage value of the total sperm count (N=6 mice per group) (FIG. 26A). FIG. 26B provides a light micrograph showing healthy and defective sperm head morphology observed. The arrows labeled 1 and 2 point to defective sperm head morphology, and the arrows labeled 3 and 4 point to healthy sperm head morphology

[9] = system: old mice (16 months old); assay: Sperm count and motility in old mice; format: in vivo, mouse; conditions: single injection 6 mg/Kg
[10] = system: ovarian tissue; assay: Ovarian tissue histopathology following irradiation; format: in vivo; conditions: treatment following X-ray irradiation
Excerpt: FIGS. 28A, 28B and 28C: Ovarian tissue histopathology following irradiation (FIG. 28A), followed by treatment with Compound 70 (FIG. 28C) or DMSO carrier (FIG. 28B).

[11] = system: LH; assay: LH expression by RT-PCR in pituitary gland cells; format: cell-based, mouse; conditions: 50 nM, 12 hours, vs untreated
Protocol: (§4) FIGS. 29A, 29B, 29C and 29D: The embodied compounds affect the expression of gonadotropin hormones in pituitary gland cells. Cells (L T2) derived from the mouse pituitary gland were assessed for their secretion of LH and FSH at 6 (FIGS. 29A and 29B) and 12 hours (FIGS. 29C and 29D) following treatment with the indicated embodied compounds (50 nM). FSH and LH expression was determined by RT-PCR, and quantified from 5 different experiments, as assessed for significance, using the t test, one way ANOVA.

[12] = system: FSH; assay: FSH expression by RT-PCR in pituitary gland cells; format: cell-based, mouse; conditions: 50 nM, 6 hours, vs untreated
Protocol: as §4

T1 sequence (Q673L6 whole entry): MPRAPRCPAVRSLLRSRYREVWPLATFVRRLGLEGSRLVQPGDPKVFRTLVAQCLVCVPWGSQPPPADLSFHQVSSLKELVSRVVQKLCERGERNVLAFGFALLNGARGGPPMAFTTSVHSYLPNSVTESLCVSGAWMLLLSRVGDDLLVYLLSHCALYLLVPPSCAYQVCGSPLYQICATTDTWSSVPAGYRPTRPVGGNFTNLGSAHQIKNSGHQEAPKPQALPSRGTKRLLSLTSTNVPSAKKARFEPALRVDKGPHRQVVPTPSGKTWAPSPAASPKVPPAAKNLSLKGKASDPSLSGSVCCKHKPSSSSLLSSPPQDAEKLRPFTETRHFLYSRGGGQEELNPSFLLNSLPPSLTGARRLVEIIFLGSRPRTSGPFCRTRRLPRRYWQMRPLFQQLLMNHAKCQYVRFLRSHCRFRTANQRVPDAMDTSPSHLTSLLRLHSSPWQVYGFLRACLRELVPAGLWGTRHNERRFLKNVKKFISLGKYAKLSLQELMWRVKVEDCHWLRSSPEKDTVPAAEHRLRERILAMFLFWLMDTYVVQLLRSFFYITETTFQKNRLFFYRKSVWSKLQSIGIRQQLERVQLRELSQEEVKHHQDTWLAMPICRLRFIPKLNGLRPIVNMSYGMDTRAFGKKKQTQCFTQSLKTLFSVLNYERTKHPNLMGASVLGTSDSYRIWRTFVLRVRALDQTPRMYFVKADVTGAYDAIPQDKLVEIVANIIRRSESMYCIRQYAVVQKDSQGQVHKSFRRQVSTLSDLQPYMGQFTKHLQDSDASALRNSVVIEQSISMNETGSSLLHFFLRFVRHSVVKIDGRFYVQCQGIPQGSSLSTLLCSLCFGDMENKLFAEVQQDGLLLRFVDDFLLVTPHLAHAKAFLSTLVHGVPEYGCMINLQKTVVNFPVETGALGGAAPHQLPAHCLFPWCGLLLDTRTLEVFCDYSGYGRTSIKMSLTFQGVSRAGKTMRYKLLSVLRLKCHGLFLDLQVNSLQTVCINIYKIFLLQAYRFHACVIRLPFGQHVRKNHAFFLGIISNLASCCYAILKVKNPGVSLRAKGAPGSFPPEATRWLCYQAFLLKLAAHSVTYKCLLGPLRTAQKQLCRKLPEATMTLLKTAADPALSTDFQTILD

COc1c(Br)cc(C(C)(c2cc(Br)c(OC)c(Br)c2)c2cc(Br)c(OC)c(Br)c2)cc1Br [Compound 70]
telomerase activity (TRAP) [1]: increased expression in a dose-dependent fashion; also recorded: further increased telomerase activity and expression in granulosa cells as compared to compound 79 | TERT relative mRNA levels [2]: increased expression in a dose-dependent fashion | expression of StAr [3]: increased expression of StAr | ovary histology (follicles, granulosa cells) ([4]; 6 mg/Kg single dose at met-estrus stage, 12 hours): more developed follicles (white arrow) and plurality of layers of granulosa cells (GC) around the oocytes | ovary histology (corpus luteum) ([4]; 6 mg/Kg single dose at pro-estrus and estrus stages, 12 hrs): more corpus luteum (CL) than in the control group | CREM expression in testis [5]: restored the expression of the spermatogenesis markers | DNA damage (γ-H2AX) in testis ([6]; compound only, without irradiation): did not cause DNA damage | expression levels of γ-H2AX in testis ([6]; irradiated mice (2.5 Gy)): a decrease in the expression levels of γ-H2AX | sperm count ([7]; irradiated mice, 9 and 30 days post irradiation): increased sperm count at 9 and 30 days post irradiation | sperm cells number from the epididymis ([7]; non-irradiated mice, 12 hrs post treatment, compared to DMSO): a significant increase | number of defective sperm cells (head morphology) [8]: reduction in the number of defective sperm cells | sperm counts [9]: increased | sperm motility [9]: increased | ovarian tissue histopathology (H&E) [10]: clearly rescues ovarian tissue exposed to radiation | LH expression [11]: increased LH production above untreated levels | FSH expression [12]: decreased FSH expression relative to untreated samples
